We go through four compounds from US11331327B2, “Antibacterial use of halogenated salicylanilides” (UNION therapeutics A/S, priority 2014, dated 2022).

The test system of data set [1] is MRSA 01, MRSA 15, MRSA 16. The data set is described as follows: Mutational frequency evaluation, Example 3. It counts as cell-based, Staphylococcus aureus. The note with it: for Frequency of spontaneous mutations conferring resistance: strain MRSA 01, average of 10 replicates; for mutation frequency at MIC×1: no colony grew. The method, then:
Strains were conserved in Luria Bertani (LB) Broth supplemented with glycerol 15% (v/v) at −80° C., and reactivated by isolation on LB agar plates. Strains were cultivated aerobically in Mueller Hinton (MH) Broth-cation adjusted at 37° C.
The frequency of spontaneous single-step mutations was determined on the 3 different strains as described by Drago et al. (2005) and Pannu et al. (2011). […] Adequate dilutions were plated on plates without the compound.
Viable cell growth was enumerated after 48 hours of incubation at 37° C.
The spontaneous resistance frequency for an isolate-drug combination was calculated from the number of colonies that grew on plates containing drug versus the number of colonies that grew on drug-free agar.
Ten replicates were carried out for each strain and fusidic acid, mupirocin and retapamulin were used as controls for the MRSA 01 strain.

The test system of a further data set is S. aureus strains. The experiment in a line: Minimum Inhibitory Concentration (MIC) assay, Example 1, S. aureus strains. In kind it is cell-based. The note with it: Staphylococcus aureus. The method, then: (§1) Strains were conserved in Luria Bertani (LB) Broth (S. aureus) or Brain Heart Infusion (BHI) (S. pyogenes) supplemented with glycerol 15% (v/v) at −80° C., and reactivated by isolation on LB (S. aureus) or BHI (S. pyogenes) agar plates. Strains were cultivated in Mueller Hinton (MH) Broth-cation adjusted (S. aureus) supplemented with lysed horse blood 2.5% (v/v) (S. pyogenes). All strains were cultivated at 37° C., aerobically for S. aureus strains.
(§2) Bacterial cultures were stopped in their exponential growth phase and plates were inoculated with the approximate concentration of 10^3 cells per well. Plates were incubated at 37° C. for 18 hours (S. aureus) or 24 hours (S. pyogenes). Optical density at a wavelength of 600 nm was measured at the end of the incubation time. […] Experiments were performed at least as triplicate biological replicates with all strains.

The subject of a further data set is S. pyogenes strains. The experiment in a line: Minimum Inhibitory Concentration (MIC) assay, Example 1, S. pyogenes strains. It counts as cell-based, Streptococcus pyogenes. The method, then:
as §1, §2

In data set [2] the test system is MRSA 01. The experiment in a line: Time-kill assay. In kind it is cell-based, Staphylococcus aureus. The note with it: niclosamide 4 μg/ml (MIC×10), initial inoculum 7 log10 cfu/ml. The method, then: Assay was performed in 20 ml of medium. It included a negative control (medium without bacteria), a positive control (bacteria grown without niclosamide) and the assay (bacteria grown with niclosamide). […] This experiment was performed with the primary test microorganism indicated above.
The overnight culture was stopped and OD600 was measured. Culture was then diluted in indicated medium to obtain an OD600 of 0.25 in order to have about 5×10^8 cfu/ml. Two hundred μl of this diluted culture were then added in all conditions except in the negative control. Initial bacterial concentration was about 5×10^6 cfu/ml. Tubes were incubated aerobically at 37° C. for 24 hours.
Bacteria were enumerated before the incubation, after 30 minutes, 1, 2, 4, 8 and 24 hours of incubation by serial dilutions in NaCl 0.9% and plating on LB agar, with 2 plates per dilution. Plates were incubated at 37° C. and colonies enumerated after 24 hours.

Data set [3] relates to MRSA 01. The experiment in a line: Colony-forming unit (CFU) in skin lesions of mice challenged with MRSA 01. In kind it is in vivo, Staphylococcus aureus. The note with it: female Balb/c mice, MRSA 01 skin lesion, topical twice daily for three days, Experiment 1. Here is the method:
Three animal studies were performed with niclosamide and fusidic acid as comparison with different formulations and doses.
In each experiment, female Balb/c mice received a skin lesion approximately 1 cm^2 and were challenged with 1.5×10^8 cfu MRSA 01 topically. Twenty-four hours after the wound formation and the contamination, mice were treated topically with 0.05 ml twice daily for three days. Mice were sacrificed on day 4, skin lesions were excised and cfu quantitated. Fusidin ointment (2% from Leo Pharma) was included as control.

The test system of data set [4] is Streptococcus pyogenes strains. The data set is described as follows: MIC assay, Example 2, S. pyogenes strains (in BHI). It counts as cell-based. The method, then:
Strains were conserved in Luria Bertani (LB) Broth (S. aureus) or Brain Heart Infusion (BHI) (S. pyogenes) supplemented with glycerol 15% (v/v) at −80° C., and reactivated by isolation on LB (S. aureus) or BHI (S. pyogenes) agar plates. Strains were cultivated in Mueller Hinton (MH) Broth-cation adjusted (S. aureus) or BHI (S. pyogenes). All strains were cultivated aerobically (microaerobically for S. pyogenes strains) at 37° C. […] Bacterial cultures were stopped in their exponential growth phase and plates were inoculated with the approximate concentration of 5×10^5 cells per well.

For data set [5] the following is noted: cited from earlier work.
The conditions of data set [6]: cats, p.o.; cited from earlier work.
The subject of data set [7] is quorum sensing response in P. aeruginosa. The note with it: reduction of quorum sensing response in P. aeruginosa; cited from earlier work.
Another data set has as its system P. aeruginosa. The settings on record: cited from earlier work.
The mark [8] stands for this setting: S. pyogenes strains with MIC 0.0625 μg/ml.
Where [9] appears, read: S. pyogenes strains with MIC 0.5 μg/ml.
Where [10] appears, read: S. pyogenes strains with MIC […].

Each structure is given as a SMILES string. “And” between values parts separate entries of the source, which are not always exact repeats. Identical values can stand only once. Like-named read-outs stand apart in the source and are kept apart here. Marks after values point to notes of the source that are not given here. Where only a bound is given, the exact number is not on record here.

Usually LD50 stands for the dose at which mortality reaches 50%.

`CC(=O)O[C@H]1C[C@@]2(C)[C@@H](C[C@@H](O)[C@H]3[C@@]4(C)CC[C@@H](O)[C@@H](C)[C@@H]4CC[C@@]32C)/C1=C(\CCC=C(C)C)C(=O)O` [Fusidic acid]: the “mutational frequency at MIC×1” value in data set [1] (MRSA 01) is listed as ≥ 4.10^−5. Besides, in data set [1] (MRSA 01), the “mutational frequency at MIC×10” value is 3.10^−7. Besides, the “Frequency of spontaneous mutations conferring resistance” value in data set [1] (concentration MIC × 1) was ≥4.10^−5; in data set [1] (concentration MIC × 2) it was 2.10^−5; in data set [1] (concentration MIC × 4) it was 1.10^−6; in data set [1] (concentration MIC × 10), 3.10^−7.

Turning to `O=C(Nc1ccc([N+](=O)[O-])cc1Cl)c1cc(Cl)ccc1O` [Niclosamide, 5-chloro-N-(2-chloro-4-nitrophenyl)-2-hydroxybenz-amide], the MIC with S. aureus strains (S. aureus strains, read-out: Mic100 S. aureus) was ≤ 0.4 µg/mL and ≤ 1.25 µM; with S. aureus strains (against S. aureus strains, including strains resistant to fusidic acid and to mupirocin (FIG. 1), read-out: MIC), not above 0.4 µg/mL; in the data set with S. pyogenes strains (Streptococcus pyogenes, S. pyogenes strains, read-out: Mic100 S. pyogenes), ≤ 3 µg/mL and ≤ 3 µM; with S. pyogenes strains (against Streptococcus pyogenes strains (FIG. 1), read-out: MIC) it was not above 3.2 µg/mL; in data set [4] (Streptococcus pyogenes, all targeted S. pyogenes strains) it was not above 0.5 µg/mL. The “bactericidal or bacteriostatic effect (time-kill curve)” value in the data set on MRSA 01 [2] is given as “bacteriostatic effect”. For the same compound, the “bacterial reduction (CFU in skin lesions) compared to control vehicles” value with MRSA 01 [3] is given as “significant bacterial reductions”. The “MIC distribution (percentage of strains)” value in [4] (setting [8]), in data set [4] (setting [9]) and in data set [4] (setting [10]) was 25% each time. In addition, the “MIC distribution (ratio of strains)” value in data set [4] (setting [8]), in data set [4] (setting [9]) and in [4] (setting [10]) was “(1/4)” each time. Also, the “mutation frequency at MIC×1” value is listed as < 3×10^−8 in data set [1] (MRSA 15) and < 1×10^−7 in [1] (MRSA 16). Further, the “mutational frequency at MIC×1” value in data set [1] (all tested strains (MRSA 01, MRSA 15, MRSA 16), below the detection limit) was < 4.10^−9. Moreover, the “Frequency of spontaneous mutations conferring resistance” value in [1] (concentration MIC × 1), in data set [1] (concentration MIC × 2), in [1] (concentration MIC × 4) and in data set [1] (concentration MIC × 10) was <4 × 10^−9* throughout. The LD50 mice p.o in data set [5] (Table 3) is more than 1500 mg/kg. The LD50 in data set [5] (mice, p.o.) is given as more than 5000 mg/kg; in [6], more than 1000 mg/kg. Also, the “concentration at which some inhibition was detected” value in data set [7] was 1 µM. Further, the “concentration required for optimal activity” value in data set [7] is 20 µM. For the same compound, the “effect on growth of P. aeruginosa” value in the data set on P. aeruginosa is “does not affect the growth”.

As for `C=C[C@]1(C)C[C@@H](OC(=O)CS[C@@H]2C[C@H]3CC[C@@H](C2)N3C)[C@]2(C)[C@H](C)CC[C@]3(CCC(=O)[C@H]32)[C@@H](C)[C@@H]1O` [Retapamulin], the “Frequency of spontaneous mutations conferring resistance” value in data set [1] (concentration MIC × 1) is recorded as ≥4.10^−5; in data set [1] (concentration MIC × 2), 3.10^−7; in data set [1] (concentration MIC × 4), 2.10^−8; in data set [1] (concentration MIC × 10) it was <4.10^−9*.

`C/C(=C\C(=O)OCCCCCCCCC(=O)O)C[C@@H]1OC[C@H](C[C@@H]2O[C@H]2[C@@H](C)[C@H](C)O)[C@@H](O)[C@H]1O` [Mupirocin]: the “Frequency of spontaneous mutations conferring resistance” value is given as ≥4.10^−5 in [1] (concentration MIC × 1), 8.10^−8 in data set [1] (concentration MIC × 2), 1.10^−8 in data set [1] (concentration MIC × 4) and ≤4.10^−9 in [1] (concentration MIC × 10).
